Test results: patent US20100297109A1, “METHODS FOR INHIBITING FASCIN” (Cornell University, priority 2007, published 2010)

Columns and labels:
[1] = test system: human colon tumor Lovo cells; assay: Cell migration assay, Lovo cells; type: cell-based
Drosophila fascin = biological target: T1, Drosophila fascin (Drosophila melanogaster, UniProt Q24524); assay: Migration of fascin siRNA-treated 4T1 cells rescued with Drosophila fascin; type: cell-based; details: Drosophila fascin in fascin siRNA-treated 4T1 cells
T1 construct: expressed in transfected cells; host or cells: 4T1 mouse mammary tumor cells treated with fascin siRNAs
T1 sequence (Q24524 1-512): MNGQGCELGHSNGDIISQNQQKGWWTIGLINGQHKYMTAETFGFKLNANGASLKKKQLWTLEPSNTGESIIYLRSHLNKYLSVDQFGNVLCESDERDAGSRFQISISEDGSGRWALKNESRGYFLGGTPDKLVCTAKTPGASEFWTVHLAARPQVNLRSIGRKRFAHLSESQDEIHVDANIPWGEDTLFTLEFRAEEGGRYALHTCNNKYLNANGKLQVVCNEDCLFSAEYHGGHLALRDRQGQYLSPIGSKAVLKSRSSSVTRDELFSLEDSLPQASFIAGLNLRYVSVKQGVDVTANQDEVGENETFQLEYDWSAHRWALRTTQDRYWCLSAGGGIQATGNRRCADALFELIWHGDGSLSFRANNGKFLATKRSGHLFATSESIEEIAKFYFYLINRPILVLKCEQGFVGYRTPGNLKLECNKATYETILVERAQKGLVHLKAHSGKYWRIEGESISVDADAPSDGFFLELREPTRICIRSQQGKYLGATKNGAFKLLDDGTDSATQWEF
Experimental: (§1) Boyden Chamber Cell Migration Assay. Cells (5×10^4) suspended in starvation medium were added to the upper chamber of an insert (6.5 mm diameter, 8-micrometer pore size, Becton Dickenson), and the insert was placed in a 24-well dish containing starvation medium with or without 10% FBS (Yang et al. 2005, Shan et al. 2006). When used, inhibitors were added to both chambers. Migration assays were carried out for 4-6 hours and cells were fixed with 3.7% formaldehyde. Cells were stained with crystal violet staining solution, and cells on the upper side of the insert were removed with a cotton swab. Three randomly selected fields (10× objectives) on the lower side of the insert were photographed, and the migrated cells were counted. The migration was expressed as either the average number of migrated cells in a field or as percentage of migrated cells in positive control. Percentage was calculated with the formula P=100×(M−Mnc)/Mpc, where P is the percentage of migrated cells, M is the number of migrated cells, Mnc is the number of migrated cells in negative controls, and Mpc is the number of migrated cells in positive controls.

[2] = test system: human fascin His474 to Lys or Ala mutants; assay: Chamber migration of fascin siRNA-treated 4T1 cells rescued with His474 mutants of human fascin; type: cell-based; details: His474 to Lys or Ala human fascin in fascin siRNA-treated 4T1 cells
Experimental: as §1

[3] = test system: human prostate tumor PC-3 cells; assay: Cell migration assay, PC-3 cells; type: cell-based
[4] = test system: mouse breast tumor 4T1 cells; assay: Wound-healing assay, serum-induced migration of 4T1 cells; type: cell-based; details: 2 μM
Experimental: Cells. Mouse 4T1 mammary tumor cells and human MDA-MB-231 breast tumor cells were obtained from ATCC and have been described previously (Shan et al. 2005, Yang et al. 2005). 4T1 cells were cultured in RPMI 1640 medium supplemented with 10% FBS. MDA-MB-231 cells were cultured in DMEM supplemented with 10% FBS. Wound-healing assay. The wound-healing assay involves observing whether confluent cells can migrate across a scrape or wound in the cell layer. Cell migration assays were performed as described previously (Yang et al. 2005, Shan et al 2006). Tumor cells were plated in a 24-well plate coated with gelatin in standard media. After the cells grew to confluence, wounds were made in the confluent layer of cell using a sterile instrument such as a sterile pipette tip. The cells were washed with Phosphate Buffered Saline (PBS) or other sterile solutions and then the migration was induced by adding medium supplemented with 10% FBS. When the wound for the positive control closed, cells were fixed with 3.7% formaldehyde and stained with crystal violet staining solution. […] Photographs several random regions of the filter facing the second chamber are taken and the number of cells counted to calculate the average number of cells that had transmigrated.

fascin [5] = biological target: T2, fascin (Homo sapiens, UniProt Q16658); type: biochemical; set-up: GST (N); made in house; host or cells: Escherichia coli BL21; details: fluorescence microscopy
Experimental: Whole cell lysates from 4T1 mouse breast tumor cells were made. After preclearing the cell lysate with immobilized neutravidin biotin binding protein (Pierce, IL, USA) to remove biotin and avidin-binding proteins, the cell lysates were loaded to a column packed with the biotin-labeled macroketone (conjugated to neutravidin beads). A control column packed with free biotin and neutravidin beads was run side-by-side. After washing the column with 10 bed volumes of lysis buffer with 300 mM NaCl, the bound proteins were eluted with 0.1 M Glycine-HCl at pH 2.8 according to the manufacturer's instruction. […] Protein Expression and Purification. Recombinant GST-fascin fusion protein was produced in BL21 Escherichia coli. A 1-liter culture was grown to an A600 reading of 1.0 and then induced by addition of 0.3 mM isopropyl 1-thio-D-galactopyranoside (IPTG) for 12 hours at 25° C. Cells were flash frozen and then lysed by sonication in Tris-buffered saline. The supernatant was then incubated with glutathione-Sepharose for 2 h at 4° C. After extensive washing, GST-fascin was eluted and concentrated with a Centricon Plus-20 (Millipore). To remove the GST tag from the fusion protein, beads were incubated with thrombin overnight at 4° C. The supernatant was collected and concentrated. […] Actin bundling activity was measured by low speed centrifugation assay and fluorescence microscopy. […]

fascin [6] = biological target: T2, fascin; assay: F-actin binding assay, high-speed centrifugation; set-up: GST (N); made in house; host or cells: Escherichia coli BL21

Compound: COC1C=CCCCCC(=O)CCC(C)=CC(C)C1O (centres unmarked) [macroketone, Migrastatin ketone]
- inhibition of migration [1]: inhibited the migration
- sensitivity of rescued migration (Drosophila fascin): no sensitivity
- inhibition of rescued migration [2]: not inhibited
- inhibition of migration [3]: inhibited the migration
- inhibition of serum-induced migration (wound-healing) [4]: inhibited the migration
- inhibition of formation of F-actin bundles (fascin [5]; fascin present): > 80%
- ability of fascin to bundle actin polymers (fascin [5]; preincubation of fascin): decreased the ability of fascin to bundle actin polymers
- fascin pulled down by F-actin (fascin [6]): significantly less fascin was pulled down
